Laboratory results: ChEMBL document CHEMBL3098089, “Probing the human estrogen receptor-α binding requirements for phenolic mono- and di-hydroxyl compounds: a combined synthesis, binding and docking study” (Bioorg Med Chem, 2014)

What was measured:
Estrogen receptor beta [1] = molecular target: T1, Estrogen receptor beta (Homo sapiens, UniProt Q92731)
Estrogen receptor [2] = molecular target: T2, Estrogen receptor (Homo sapiens, UniProt P03372)
T2 sequence (P03372 whole entry): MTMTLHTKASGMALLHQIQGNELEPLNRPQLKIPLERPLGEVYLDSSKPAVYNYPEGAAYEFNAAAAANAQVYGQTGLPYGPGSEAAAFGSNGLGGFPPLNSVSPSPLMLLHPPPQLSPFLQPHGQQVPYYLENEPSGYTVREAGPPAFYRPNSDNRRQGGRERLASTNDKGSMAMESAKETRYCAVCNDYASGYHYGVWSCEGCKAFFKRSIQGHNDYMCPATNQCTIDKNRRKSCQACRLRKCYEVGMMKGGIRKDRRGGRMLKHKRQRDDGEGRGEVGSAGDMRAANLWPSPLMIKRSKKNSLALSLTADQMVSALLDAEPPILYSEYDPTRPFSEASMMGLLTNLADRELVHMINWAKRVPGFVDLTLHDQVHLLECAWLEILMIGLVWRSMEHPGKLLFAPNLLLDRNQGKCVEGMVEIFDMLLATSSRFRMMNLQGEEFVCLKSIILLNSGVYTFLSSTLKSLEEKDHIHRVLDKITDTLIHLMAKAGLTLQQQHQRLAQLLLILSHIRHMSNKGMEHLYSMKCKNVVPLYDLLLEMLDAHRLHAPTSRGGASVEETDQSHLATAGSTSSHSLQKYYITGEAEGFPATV

Estrogen receptor [3] = molecular target: T2, Estrogen receptor; remark: listed apart in the source
Estrogen receptor beta [4] = molecular target: T1, Estrogen receptor beta; remark: listed apart in the source

T1 sequence (Q92731 whole entry): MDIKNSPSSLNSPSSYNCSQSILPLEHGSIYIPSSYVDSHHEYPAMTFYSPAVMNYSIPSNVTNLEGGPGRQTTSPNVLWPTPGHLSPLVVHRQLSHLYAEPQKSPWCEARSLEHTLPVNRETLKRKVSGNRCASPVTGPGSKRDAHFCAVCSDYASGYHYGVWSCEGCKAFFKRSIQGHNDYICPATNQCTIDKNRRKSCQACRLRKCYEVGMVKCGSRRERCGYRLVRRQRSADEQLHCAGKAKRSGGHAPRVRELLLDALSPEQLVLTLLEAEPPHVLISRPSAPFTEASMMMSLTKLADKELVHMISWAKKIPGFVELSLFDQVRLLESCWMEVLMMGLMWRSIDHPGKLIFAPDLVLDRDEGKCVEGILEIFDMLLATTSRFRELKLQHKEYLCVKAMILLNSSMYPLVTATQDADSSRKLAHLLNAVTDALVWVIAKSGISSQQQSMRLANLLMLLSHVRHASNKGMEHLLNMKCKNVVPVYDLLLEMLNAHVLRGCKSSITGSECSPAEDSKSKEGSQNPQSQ

## CC1C[C@H](C)C2(CC[C@H]3[C@@H]4CCc5cc(O)ccc5[C@H]4CC[C@@]32C)O1 (stereo partly drawn)
Estrogen receptor beta [1]
  IC50: 111 nM
Estrogen receptor [2]
  IC50: 484 nM
Estrogen receptor [3]
  Kd: 160 nM

## C[C@@H](CCO)C1=CC[C@H]2[C@@H]3CCc4cc(O)ccc4[C@H]3CC[C@]12C
Estrogen receptor beta [4]
  IC50: 275 nM
Estrogen receptor beta [1]
  IC50: 108 nM
Estrogen receptor [3]
  Kd: 320 nM

## OC[C@H]1CCC[C@@H](c2ccc(O)cc2)CC1 (racemic)
Estrogen receptor [3]
  Kd: > 1000 nM

## C[C@]12CC[C@@H]3c4ccc(O)cc4CC[C@H]3[C@@H]1CC=C2CO
Estrogen receptor beta [1]
  IC50: 6.8 nM

## CC[C@H](C)C1=CC[C@H]2[C@@H]3CCc4cc(O)ccc4[C@H]3CC[C@]12C
Estrogen receptor beta [4]
  IC50: 70 nM
Estrogen receptor beta [1]
  IC50: 88 nM
Estrogen receptor [3]
  Kd: 160 nM

## CCCOC(=O)[C@H]1CC[C@H]2[C@@H]3CCc4cc(O)ccc4[C@H]3CC[C@]12C
Estrogen receptor [2]
  IC50: 92 nM
Estrogen receptor [3]
  Kd: 320 nM
